Source: PubChem BioAssay (NCI)
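Test compounds were applied to cells in 96-well plates for 48 hours at 5 doses. TGI denotes the concentration required for complete inhibition of growth.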

Assays:
Assay in all cases: NCI-60 cell line screen, 48 h
[1] = system: 786-0 renal
[2] = system: A498 renal
[3] = system: A549 NSCLC
[4] = system: ACHN renal
[5] = system: BT-549 breast
[6] = system: CAKI-1 renal
[7] = system: CCRF-CEM leukemia
[8] = system: COLO 205 colon
[9] = system: DU-145 prostate
[10] = system: EKVX NSCLC
[11] = system: HCC-2998 colon
[12] = system: HCT-116 colon
[13] = system: HCT-15 colon
[14] = system: HL-60(TB) leukemia
[15] = system: HOP-62 NSCLC
[16] = system: HOP-92 NSCLC
[17] = system: HS 578T breast
[18] = system: HT29 colon
[19] = system: IGROV1 ovarian
[20] = system: K-562 leukemia
[21] = system: KM12 colon
[22] = system: LOX IMVI melanoma
[23] = system: M14 melanoma
[24] = system: MALME-3M melanoma
[25] = system: MCF7 breast
[26] = system: MDA-MB-231 breast
[27] = system: MDA-MB-435
[28] = system: MDA-N
[29] = system: MOLT-4 leukemia
[30] = system: NCI-H226 lung
[31] = system: NCI-H23 lung
[32] = system: NCI-H460 lung
[33] = system: NCI-H522 lung
[34] = system: NCI/ADR-RES ovarian
[35] = system: OVCAR-3 ovarian
[36] = system: OVCAR-4 ovarian
[37] = system: OVCAR-5 ovarian
[38] = system: OVCAR-8 ovarian
[39] = system: PC-3 prostate
[40] = system: RXF 393 renal
[41] = system: SF-268 CNS
[42] = system: SF-295 CNS
[43] = system: SF-539 CNS
[44] = system: SK-MEL-2 melanoma
[45] = system: SK-MEL-28 melanoma
[46] = system: SK-MEL-5 melanoma
[47] = system: SK-OV-3 ovarian
[48] = system: SN12C renal
[49] = system: SNB-19 CNS
[50] = system: SNB-75 CNS
[51] = system: SR leukemia
[52] = system: SW-620 colon
[53] = system: T-47D breast
[54] = system: TK-10 renal
[55] = system: U251 CNS
[56] = system: UACC-257 melanoma
[57] = system: UACC-62 melanoma
[58] = system: UO-31 renal
[59] = system: DLD-1 colon
[60] = system: DMS 114 small cell lung
[61] = system: DMS 273 small cell lung
[62] = system: HOP-18 NSCLC
[63] = system: LXFL 529 NSCLC
[64] = system: M19-MEL melanoma
[65] = system: RPMI-8226 leukemia
[66] = system: SNB-78 CNS

Work on OC1(c2ccccc2)CSC2=Nc3ccccc3C3CCN1N23 (centres undefined) yielded a TGI [1] of 34.4 µM, a TGI [2] of 44.7 µM and a TGI [3] of 74.3 µM. The TGI [4] was 54.1 µM, the TGI [5] was 57.4 µM and the TGI [6] was 72.6 µM. It also gave a TGI [7] of 94.1 µM, a TGI [8] of 32.3 µM and a TGI [9] of 29.7 µM. For the same compound, the TGI [10] was 28.6 µM, the TGI [11] was 88.7 µM and the TGI [12] was 44.1 µM. It also gave a TGI [13] of 39.1 µM, a TGI [14] of 71.1 µM and a TGI [15] of 50 µM. For the same compound, the TGI [16] was 69.6 µM, the TGI [17] was over 100 µM and the TGI [18] was 33.8 µM. For the same compound, the TGI [19] was 27.4 µM, the TGI [20] was over 100 µM and the TGI [21] was 42 µM. It also gave a TGI [22] of 36.9 µM, a TGI [23] of 38.3 µM and a TGI [24] of 81.7 µM. For the same compound, the TGI [25] was 46 µM, the TGI [26] was 31.9 µM and the TGI [27] was 34 µM. The TGI [28] was 27.2 µM, the TGI [29] was 80.9 µM and the TGI [30] was over 100 µM. For the same compound, the TGI [31] was 79.2 µM, the TGI [32] was over 100 µM and the TGI [33] was 40.5 µM. For the same compound, the TGI [34] was 63.9 µM, the TGI [35] was over 100 µM and the TGI [36] was over 100 µM. It also gave a TGI [37] of 32 µM, a TGI [38] of 43.5 µM and a TGI [39] of 29.5 µM. For the same compound, the TGI [40] was 36.9 µM, the TGI [41] was 58.5 µM and the TGI [42] was 33.8 µM. For the same compound, the TGI [43] was 30.8 µM, the TGI [44] was 32.1 µM and the TGI [45] was 11.3 µM. The TGI [46] was 35.9 µM, the TGI [47] was over 100 µM and the TGI [48] was 40.1 µM. For the same compound, the TGI [49] was 37.4 µM, the TGI [50] was 25.5 µM and the TGI [51] was 55.4 µM. The TGI [52] was 47.1 µM, the TGI [53] was 47.5 µM and the TGI [54] was 43.2 µM. For the same compound, the TGI [55] was 28.1 µM, the TGI [56] was 86.8 µM and the TGI [57] was 46.3 µM. For the same compound, the TGI [58] was 28.7 µM.

With CN(C)CCC(/C=C/c1ccccc1)=N\Nc1ccc(Cl)cc1Cl the TGI [1] was 26.1 µM, the TGI [2] was 30.5 µM and the TGI [3] was 30.5 µM. It also gave a TGI [4] of 25.5 µM, a TGI [7] of 25.8 µM and a TGI [8] of 28.1 µM. The TGI [59] was 27.9 µM, the TGI [60] was 29.5 µM and the TGI [61] was 25.9 µM. For the same compound, the TGI [10] was 31.1 µM, the TGI [12] was 28.8 µM and the TGI [13] was 24.2 µM. The TGI [14] was 16.7 µM, the TGI [62] was 21.9 µM and the TGI [15] was 27.9 µM. The TGI [18] was 27.2 µM, the TGI [19] was 20.9 µM and the TGI [20] was 28.7 µM. The TGI [21] was 29.7 µM, the TGI [63] was 22.8 µM and the TGI [23] was 26.6 µM. The TGI [64] was 29 µM, the TGI [24] was 41.2 µM and the TGI [29] was 25.9 µM. For the same compound, the TGI [31] was 31.4 µM, the TGI [32] was 28.1 µM and the TGI [33] was 30.6 µM. The TGI [35] was 27.5 µM, the TGI [36] was 29.7 µM and the TGI [37] was 28.8 µM. The TGI [38] was 30.3 µM, the TGI [65] was 30.1 µM and the TGI [40] was 21 µM. It also gave a TGI [41] of 28.2 µM, a TGI [42] of 30.2 µM and a TGI [43] of 29 µM. The TGI [44] was 26.7 µM, the TGI [45] was 27.3 µM and the TGI [46] was 26.2 µM. For the same compound, the TGI [47] was 22.8 µM, the TGI [48] was 23.2 µM and the TGI [49] was 29.4 µM. It also gave a TGI [50] of 18.8 µM, a TGI [66] of 26.9 µM and a TGI [51] of 23.9 µM. For the same compound, the TGI [52] was 27.9 µM, the TGI [54] was 27.2 µM and the TGI [55] was 24.7 µM. The TGI [56] was 27 µM, the TGI [57] was 21.4 µM and the TGI [58] was 6.5 µM.
